Assay results published in US20130172320A1, “PYRIDO [4,3-B] INDOLE AND PYRIDO [3,4-B] INDOLE DERIVATIVES AND METHODS OF USE” (priority 2010, published 2013).

How the values were obtained:
[1] = target: T1, human recombinant serotonin (5-Hydroxytryptamine) 5-HT2C receptor (Homo sapiens, UniProt P28335); experiment: Serotonin 5-HT2C radioligand binding ([3H]Mesulergine); details: compound at 0.1 μM; read-out: Percentage inhibition of ligand binding, Serotonin (0.1 μM) 5-HT2C
T1 construct: expressed in transfected cells; host or cells: Chinese hamster ovary (CHO) K1 cells
T1 sequence (P28335 33-458): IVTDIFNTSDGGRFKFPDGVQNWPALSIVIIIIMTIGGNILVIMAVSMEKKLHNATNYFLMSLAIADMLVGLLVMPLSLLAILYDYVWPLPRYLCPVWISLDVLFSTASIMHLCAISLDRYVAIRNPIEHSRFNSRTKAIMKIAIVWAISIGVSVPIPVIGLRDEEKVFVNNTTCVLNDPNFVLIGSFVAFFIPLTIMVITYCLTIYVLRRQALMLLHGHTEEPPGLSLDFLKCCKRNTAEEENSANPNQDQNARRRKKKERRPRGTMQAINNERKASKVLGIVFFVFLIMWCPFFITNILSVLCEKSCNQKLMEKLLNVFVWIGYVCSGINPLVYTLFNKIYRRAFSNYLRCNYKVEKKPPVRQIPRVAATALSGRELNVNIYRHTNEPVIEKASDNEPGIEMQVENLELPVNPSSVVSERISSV
Method: To evaluate in radioligand binding assays the activity of compounds of the invention, human recombinant serotonin (5-Hydroxytryptamine) 5-HT2C receptor expressed in Chinese hamster ovary (CHO) K1 cells (Wolf, W. et al, J. Neurochem. 69:1449, 1997) in a modified Tris-HCl buffer (50 mM Tris-HCl, pH 7.4, 0.1% Ascorbic Acid, 10 μM Pargyline) was used. Compounds of the invention were incubated with 1 nM [^3H]Mesulergine for 60 min at 25° C. Non-specific binding was estimated in the presence of 1 μM Mianserin. Receptor proteins were filtered and washed, the filters were then counted to determine [^3H]Mesulergine specifically bound. Compounds were screened at 1 μM or lower, using 1% DMSO as vehicle. Biochemical assay results are presented as the percent inhibition of specific binding in Table 4.

[2] = target: human recombinant dopamine D2L receptor (Homo sapiens, UniProt P14416); experiment: Dopamine D2L radioligand binding ([3H]Spiperone); details: compound at 0.2 μM; read-out: Percentage inhibition of ligand binding, Dopamine (0.2 μM) D2L
Sequence of human recombinant dopamine D2L receptor (P14416 whole entry): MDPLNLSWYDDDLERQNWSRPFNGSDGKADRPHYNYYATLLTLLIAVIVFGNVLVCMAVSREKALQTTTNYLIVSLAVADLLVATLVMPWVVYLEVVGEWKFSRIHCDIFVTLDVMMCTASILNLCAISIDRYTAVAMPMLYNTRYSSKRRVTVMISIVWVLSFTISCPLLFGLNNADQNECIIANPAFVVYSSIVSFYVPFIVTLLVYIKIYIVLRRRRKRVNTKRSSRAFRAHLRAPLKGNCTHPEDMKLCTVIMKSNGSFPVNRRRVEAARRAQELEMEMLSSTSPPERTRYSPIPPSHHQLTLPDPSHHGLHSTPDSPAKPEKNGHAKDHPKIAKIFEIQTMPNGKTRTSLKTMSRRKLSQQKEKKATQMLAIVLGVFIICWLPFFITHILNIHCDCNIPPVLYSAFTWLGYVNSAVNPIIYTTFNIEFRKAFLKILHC
Method: To evaluate in radioligand binding assays the activity of compounds of the invention, human recombinant dopamine D2L receptor expressed in Chinese hamster ovary (CHO) cells (Grandy, D. et al, Proc. Natl. Acad. Sci. USA. 86:9762, 1989; Hayes, G. et al, Mol. Endocrinol. 6:920, 1992) in a modified Tris-HCl buffer (50 mM Tris-HCl, pH 7.4, 1.4 mM Ascorbic Acid, 0.001% BSA, 150 mM NaCl) was used. Compounds of the invention were incubated with 0.16 nM [^3H]Spiperone for 120 min at 25° C. Non-specific binding was estimated in the presence of 10 μM Haloperidol. Receptor proteins were filtered and washed, the filters were then counted to determine [^3H]Spiperone specifically bound. Compounds were screened at 1 μM or lower, using 1% DMSO as vehicle. Biochemical assay results are presented as the percent inhibition of specific binding in Table 3.

SMILES	inhibition at 0.1 µM [1] [%]	inhibition at 0.2 µM [2] [%]
C#CCC1(C)CN(C)Cc2c1n(C)c1ccc(C)cc21 (stereo not shown) [Compound 47, 2,4,5,8-tetramethyl-4-(prop-2-ynyl)-2,3,4,5-tetrahydro-1H-pyrido[4,3-b]indole]	19	5
Cc1ccc2c(c1)c1c(n2C)C(C)(CCc2nc(-c3ccccc3)cs2)CN(C)C1 (stereo not shown) [Compound 48]	25	-5
